{"source": "paper PMC4275348", "about": "(Molecular microbiology, 2014)", "key": {"LuxN^H210T": {"target": "T1, LuxN^H210T (Vibrio campbellii, UniProt A7MRY4, H210T)", "T1 sequence (A7MRY4 1-849 H210T)": "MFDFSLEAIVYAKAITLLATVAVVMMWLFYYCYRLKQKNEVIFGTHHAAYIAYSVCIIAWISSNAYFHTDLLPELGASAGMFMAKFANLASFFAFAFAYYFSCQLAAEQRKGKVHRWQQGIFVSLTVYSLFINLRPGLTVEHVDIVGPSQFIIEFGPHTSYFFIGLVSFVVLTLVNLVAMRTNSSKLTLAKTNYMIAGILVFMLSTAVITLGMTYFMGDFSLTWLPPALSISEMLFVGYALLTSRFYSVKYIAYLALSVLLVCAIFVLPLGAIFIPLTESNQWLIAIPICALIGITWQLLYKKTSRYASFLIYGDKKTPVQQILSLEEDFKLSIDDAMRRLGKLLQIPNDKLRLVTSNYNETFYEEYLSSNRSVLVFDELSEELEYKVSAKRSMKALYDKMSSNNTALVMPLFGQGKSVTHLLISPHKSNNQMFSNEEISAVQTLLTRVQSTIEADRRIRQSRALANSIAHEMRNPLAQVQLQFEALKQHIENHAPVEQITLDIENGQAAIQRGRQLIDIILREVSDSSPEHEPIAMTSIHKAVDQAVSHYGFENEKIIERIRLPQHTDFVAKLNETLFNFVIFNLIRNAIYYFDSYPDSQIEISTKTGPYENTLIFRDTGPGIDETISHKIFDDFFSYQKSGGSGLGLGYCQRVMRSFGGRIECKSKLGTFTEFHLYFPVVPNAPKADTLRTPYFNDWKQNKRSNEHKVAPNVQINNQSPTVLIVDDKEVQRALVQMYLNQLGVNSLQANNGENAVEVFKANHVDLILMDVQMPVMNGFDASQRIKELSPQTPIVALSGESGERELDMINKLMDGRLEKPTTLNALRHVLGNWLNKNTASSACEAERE", "assay": "Bioluminescence of V. harveyi XK006 carrying luxN H210T", "type": "cell-based, Vibrio harveyi", "conditions": "1 μM AHL"}, "LuxN^G147D/Y194H": {"target": "T2, LuxN^G147D/Y194H (Vibrio campbellii, UniProt A7MRY4, G147D/Y194H)", "T2 sequence (A7MRY4 1-849 G147D/Y194H)": "T1 sequence (A7MRY4 1-849 H210T) with G147D, Y194H, T210H", "assay": "Bioluminescence of V. harveyi XK006 carrying luxN G147D/Y194H", "type": "cell-based, Vibrio harveyi"}, "WT LuxN": {"target": "WT LuxN (Vibrio campbellii, UniProt A7MRY4)", "conditions": "100 nM AI-1; XK847"}, "LuxN^H210N": {"target": "T3, LuxN^H210N (Vibrio campbellii, UniProt A7MRY4, H210N)", "T3 sequence (A7MRY4 1-849 H210N)": "T1 sequence (A7MRY4 1-849 H210T) with T210N", "assay": "Bioluminescence of V. harveyi XK006 carrying luxN H210N", "type": "cell-based, Vibrio harveyi", "conditions": "dose-dependent light production"}, "LuxN": {"target": "LuxN (Vibrio campbellii, UniProt A7MRY4)", "conditions": "1 μM AHL; V. harveyi TL25; versus DMSO"}, "Kin^off LuxN mutants": {"test_system": "Kin^off LuxN mutants", "assay": "Bioluminescence of V. harveyi XK847 harboring Kin^off luxN alleles", "type": "cell-based, Vibrio harveyi"}}, "note": "Positions count from the first letter of the chain named.", "data": [{"compound": "C[C@@H](O)CC(=O)N[C@H]1CCOC1=O", "note": "[3OH-C4 HSL, N-((R)-3-hydroxybutanoyl)-L-homoserine lactone]", "values": [{"measurement": "response (light production)", "setting": "LuxN^H210T", "result": "modest response"}, {"measurement": "response (dose-dependent light production)", "setting": "LuxN^G147D/Y194H", "result": "most potent agonist"}, {"measurement": "induction of light production", "setting": "LuxN^G147D/Y194H; 20 nM AI-1", "result": 30, "unit": "fold"}, {"measurement": "increase in light production", "setting": "WT LuxN", "result": 1000, "unit": "fold"}, {"measurement": "less sensitivity than for the other two C4 AHLs (3O-C4 HSL, C4 HSL)", "setting": "LuxN^H210N", "result": 10, "unit": "fold"}, {"measurement": "increase in light production", "setting": "LuxN", "result": "over 1000 fold"}, {"measurement": "light production / detection", "setting": "Kin^off LuxN mutants", "result": "produced maximal light"}]}]}
